The values that follow come from article PMC6332220, “Synthesis, Characterization and Biological Evaluation of Some Quinoxaline Derivatives: A Promising and Potent New Class of Antitumor and Antimicrobial Agents” (Molecules, 2015).

One assay deals with Salmonella typhimurium. The assay is described as follows: Disk diffusion, Salmonella typhimurium. It is filed as cell-based. The settings on record: Gram negative, 8.0 mm disks, 10 μL. As for the experimental part:
(§1) The disk diffusion method was used for determination of the antimicrobial activity using ampicillin, gentamicin and amphotericin B as reference drugs. The results were recorded for each compounds as the average diameter as inhibition zones (IZ) of bacterial or fungal growth around the discs in mm as shown in Table 2.
(§2) Antimicrobial activities were carried out against highly pathogenic strains; three strains of Gram positive bacteria (Bacillus subtilis, Staphylococcus aureus and Streptococcus faecalis), four strains of Gram negative bacteria (Escherichia coli, Neisseria gonorrhoeae, Pseudomonas aeruginosa and Salmonella typhimurium) and three fungi strains (Aspergillus flavus, Aspergillus fumigatus and Candida albicans) isolated from primary agar plates. Antimicrobial activity of the tested samples was determined using a modified Kriby-Bauer disk diffusion method. Briefly, 100 µL of the test bacteria/fungi were grown in 10 mL of fresh media until they reached a count approximately 10^8 cells/mL for bacteria or 10^5 cells/mL for fungi. 100 µL of microbial suspension was spread onto agar plates corresponding to the broth in which they were maintained. The inoculated plates of bacterial strains were incubated at 35–37 °C for 24–48 h, while the inoculated plates of fungal strains such as A. flavus and A. fumigatus were incubated at 25 °C for 48 h and yeast as C. albicans was incubated at 30 °C for 24–48 h.
(§3) The agar disk diffusion (qualitative) method was used in this investigation for determination of the preliminary antibacterial and antifungal activities. The agar used was Mueller-Hinton agar plates that are rigorously tested for composition and pH. Further the depth of the agar in the plate is a factor to be considered in the disk diffusion method.
(§4) Reference drugs: ampicillin was used as a standard antibacterial drug for Gram positive bacteria, gentamicin as a standard antibacterial drug for Gram negative bacteria and amphotericin B as antifungal standard drug.
(§5) Bacterial and fungal strains were spread onto the surface of the agar plates using sterile cotton swabs. For evaluation of antibacterial activities, blank paper disks (Schleicher & Schuell, Alicante, Spain) with a diameter of 8.0 mm were saturated with 10 μL of tested concentration of the stock solutions. Disks were dried and then placed onto inoculated agar plates. The plates of bacterial strains were reincubated at 35–37 °C for 24–48 h, while the plates of fungal strains such as A. flavus and A. fumigatus were reincubated at 25 °C for 48 h and yeast as C. albicans was reincubated at 30 °C for 24–48 h as mentioned above. […] For an accurate analysis, tests were run in triplicate for each strain to avoid any error as described in Table 2.
On the technique in general: Agar diffusion results depend on both activity and mobility in agar.

The test system of a further assay is Streptococcus faecalis. Put plainly: Disk diffusion, Streptococcus faecalis. The assay is classed as cell-based. As to conditions: Gram positive, 8.0 mm disks, 10 μL. As for the experimental part:
as §1, §2, §3, §4, §5

The subject of assay [1] is Candida albicans. The assay is described as follows: Disk diffusion, Candida albicans. The assay is classed as cell-based. As to conditions: Fungi, 8.0 mm disks, 10 μL. As for the experimental part: as §1, §2, §3, §4, §5
Disk diffusion method for filamentous fungi testing by using approved standard method (M02-A11) developed by the CLSI for evaluating the susceptibilities of filamentous fungi to antifungal agents. Disk diffusion method for yeasts developed by using approved standard method (M44-A2) by the CLSI [44]. Agar-based methods such as disk diffusion can be good alternatives because they are simpler and faster than broth-based methods.

A further assay concerns Staphylococcus aureus. Put plainly: MIC by broth dilution, Staphylococcus aureus. It is filed as cell-based. The settings on record: Staphylococcus aureus, Gram positive, 0.98-125 µg/mL, read-out: Minimum Inhibitory Concentration (MIC) (µg/mL) Staphylococcus aureus. Here is the method: (§6) In this study, MIC (quantitative method) was used for evaluation of the antimicrobial activity of tested compounds. Screening was evaluated in vitro using the Broth dilution method according to CLSI [45]. All the bacteria were incubated and activated at 30 °C for 24 h inoculation into nutrient broth and the fungi were incubated in malt extract broth for 48 h. The compounds were dissolved in DMSO and then diluted using […] Mueller-Hinton broth. […] In each case triplicate tests were performed and the average was taken as the final reading. The tubes were then inoculated with the test organisms, grown in their suitable broth at 37 °C for 24 h for tested microorganisms (1 × 10^8 CFU/mL for bacteria and 1 × 10^6 CFU/mL of fungi), each 5 mL received 0.1 mL of the above inoculum and incubated at 37 °C for 24 h.

Assay [2] has as its system NCI-H460 (non-small cell lung cancer). The assay is described as follows: In vitro cytotoxicity, SRB cell growth assay, NCI-H460. The settings on record: Homo sapiens, NCI-H460, 48 h, read-out: IC50 (μg/mL) NCI-H460. As for the experimental part: The in vitro cytotoxic activity of the newly synthesized compounds against human breast cell line (MCF7), non-small cell lung cancer NCIH460, CNS cancer SF-268 and WI 38 (normal fibroblast cells) were evaluated using doxorubicin as the reference drug according to the method reported by Skehan et al..
The newly synthesized compounds were evaluated in vitro against three human cancer cell lines; which are MCF-7 (breast adenocarcinoma), NCI-H460 (non-small cell lung cancer) and SF-268 (CNS cancer), and WI 38 (normal fibroblast cells) were used in this study. MCF-7 was obtained from the European Collection of Cell Cultures (ECACC, Salisbury, UK) but NCI-H460, SF-268 and WI 38 were kindly provided by the National Cancer Institute (NCI, Cairo, Egypt). They grow as monolayer and routinely maintained RPMI-1640 medium supplemented with 5% heat inactivated fetal bovine serum (FBS), 2 mM glutamine and antibiotics (penicillin 100 U/mL, streptomycin 100 µg/mL), at 37 °C in a humidified atmosphere containing 5% CO2. Exponentially growing cells were obtained by plating 1.5 × 10^5 cells/mL for MCF-7 and SF-268, and 0.75 × 10^4 cells/mL for NCI-H460 followed by 24 h of incubation. The effect of the vehicle solvent (DMSO) on the growth of these cell lines was evaluated in all experiments by exposing untreated control cells to the maximum concentration (0.5%) of DMSO used in each assay.
The effect of compounds on the in vitro growth of human tumor cell lines were evaluated according to the procedure adopted by the National Cancer Institute ([…]) in the “In vitro Anticancer Drug Discovery Screen” that uses the protein-binding dye sulforhodamine B (SRB) to assess cell growth. In the assay protocol, all cells were incubated at 37 °C under humidified atmosphere containing 5% CO2. Briefly, exponentially cells growing in 96-well plates were then exposed for 48 h to five serial concentrations of each compound, starting from a maximum concentration of 150 μg/mL. Following this exposure period adherent cells were fixed, washed and stained. The bound stain was solubilized and the absorbance was measured at 492 nm in a plate reader (Bio-Tek Instruments Inc., Power wave XS, Winston, NC, USA). For each test compound and cell line, a dose response curve was obtained and the inhibitory concentration of 50% (IC50), corresponding to the concentration of the compounds that inhibited 50% of the net cell growth was calculated as described elsewhere. Doxorubicin was used as a positive control and tested in the same manner.

Assay [3] has as its system Candida albicans. The assay is described as follows: MIC by broth dilution, Candida albicans. The assay is classed as cell-based. As to conditions: Fungi, 0.98-125 µg/mL, read-out: Minimum Inhibitory Concentration (MIC) (µg/mL) Candida albicans. Here is the method: as §1, §6
In general terms: In broth dilution the organism is exposed to a series of concentrations in liquid medium.

The test system of the next assay is Aspergillus fumigatus. The assay is described as follows: MIC by broth dilution, Aspergillus fumigatus. As to conditions: Fungi, 0.98-125 µg/mL, read-out: Minimum Inhibitory Concentration (MIC) (µg/mL) Aspergillus fumigatus. The assay is classed as cell-based. Here is the method:
as §1, §6

In assay [4] the test system is A. fumigatus and C. albicans. Put plainly: Disk diffusion, summary over A. fumigatus and C. albicans. The assay is classed as cell-based. As to conditions: range over both fungi. Here is the method: as §1, §2, §3, §4
Bacterial and fungal strains were spread onto the surface of the agar plates using sterile cotton swabs. […]

Values after ≈ are worked out from the molar mass of the structure shown.

Consider `Brc1ccc2c(c1)n1nnnc1c1nnnn21` [Compound 11, 9-Bromoditetrazolo[1,5-a:5′,1′-c]quinoxaline], for which the “Inhibition Zone Diameter (IZ) (mm) Salmonella typhimurium” value in the assay on Salmonella typhimurium stood at 18 mm. Also, the “Inhibition Zone Diameter (IZ) (mm) Streptococcus faecalis” value with Streptococcus faecalis was 15 mm. The “Inhibition Zone Diameter (IZ) (mm) Candida albicans” value in the assay with Candida albicans [1] was “R (R (IZ = 0 mm))”. In addition, the MIC in the assay with Staphylococcus aureus amounted to 7.81 µg/mL (≈ 26.8 µM). Moreover, the IC50 in assay [2] is 2.83 ± 0.53 µg/mL (≈ 9.72 µM).
Turning to `Cc1cc(C)n(-c2nc3cc(Br)ccc3nc2NN)n1` [Compound 14, 6-Bromo-3-(3,5-dimethyl-1H-pyrazol-1-yl)-2-hydrazinyl quinoxaline], the “Inhibition Zone Diameter (IZ) (mm) Salmonella typhimurium” value with Salmonella typhimurium is on record as 10 mm. Moreover, the “Inhibition Zone Diameter (IZ) (mm) Streptococcus faecalis” value in the assay on Streptococcus faecalis is recorded as 12 mm. Further, the “Inhibition Zone Diameter (IZ) (mm) Candida albicans” value in the assay on Candida albicans [1] was “R (R (IZ = 0 mm))”. The MIC in the assay on Staphylococcus aureus was found to be 1.95 µg/mL (≈ 5.85 µM). Further, the IC50 in assay [2] turned out to be 38.3 ± 2.35 µg/mL (≈ 115 µM).
Turning to `Brc1ccc2nc(N3CCCCC3)c3nnnn3c2c1` [Compound 5a, 8-Bromo-4-(piperidin-1-yl)tetrazolo[1,5-a]quinoxaline], the “Inhibition Zone Diameter (IZ) (mm) Salmonella typhimurium” value in the assay with Salmonella typhimurium is on record as 14 mm. In the assay with Streptococcus faecalis, the “Inhibition Zone Diameter (IZ) (mm) Streptococcus faecalis” value is on record as 9 mm. In addition, the MIC in the assay on Candida albicans [3] stood at 62.5 µg/mL (≈ 188 µM); in the assay with Aspergillus fumigatus, 31.2 µg/mL (≈ 93.8 µM); in the assay on Staphylococcus aureus it was 62.5 µg/mL (≈ 188 µM). Also, the “Inhibition Zone Diameter (IZ) (mm) Candida albicans” value in the assay on Candida albicans [1] is reported as 12 mm. In addition, the “IZ range against A. fumigatus and C. albicans” value (from here on “IZ range”) in assay [4] is 5–13 mm. Further, the IC50 in assay [2] was 0.02 ± 0.006 µg/mL (≈ 0.06 µM).
In the case of `Brc1ccc2nc(N3CCOCC3)c3nnnn3c2c1` [Compound 5b, 8-Bromo-4-(morpholin-4-yl)tetrazolo[1,5-a]quinoxaline], the “Inhibition Zone Diameter (IZ) (mm) Salmonella typhimurium” value in the assay on Salmonella typhimurium is on record as 13 mm. For the same molecule, the “Inhibition Zone Diameter (IZ) (mm) Streptococcus faecalis” value in the assay on Streptococcus faecalis was 11 mm. The results for the MIC in the assay with Candida albicans [3], in the assay with Aspergillus fumigatus and in the assay on Staphylococcus aureus were 3.9 µg/mL (≈ 11.6 µM), 1.95 µg/mL (≈ 5.82 µM) and 1.95 µg/mL (≈ 5.82 µM), respectively. For the same molecule, the “Inhibition Zone Diameter (IZ) (mm) Candida albicans” value in the assay with Candida albicans [1] stood at 9 mm. In addition, the “IZ range” value in assay [4] is 5–13 mm. Moreover, in assay [2], the IC50 turned out to be 0.01 ± 0.002 µg/mL (≈ 0.0298 µM).
For `NNc1nc2ccc(Br)cc2nc1NN` [Compound 9, 6-Bromo-2,3-dihydrazinylquinoxaline], the “Inhibition Zone Diameter (IZ) (mm) Salmonella typhimurium” value in the assay on Salmonella typhimurium is recorded as 17 mm. Moreover, in the assay on Streptococcus faecalis, the “Inhibition Zone Diameter (IZ) (mm) Streptococcus faecalis” value was 27 mm. Besides, the MIC came to 0.98 µg/mL (≈ 3.64 µM) with Candida albicans [3], 0.98 µg/mL (≈ 3.64 µM) in the assay on Aspergillus fumigatus and 1.95 µg/mL (≈ 7.25 µM) with Staphylococcus aureus. The “Inhibition Zone Diameter (IZ) (mm) Candida albicans” value with Candida albicans [1] turned out to be 11 mm. Further, in assay [4], the “IZ range” value was 5–13 mm. Further, in assay [2], the IC50 was 16.4 ± 2.32 µg/mL (≈ 60.8 µM).
As to `NC1=NN(c2nc3ccc(Br)cc3nc2N2N=C(N)CC2=O)C(=O)C1` [Compound 16, 6-Bromo-2,3-bis(3-amino-1H-pyrazol-5(4H)-one)quinoxaline], in the assay with Salmonella typhimurium, the “Inhibition Zone Diameter (IZ) (mm) Salmonella typhimurium” value came to 10 mm. For the same molecule, in the assay on Streptococcus faecalis, the “Inhibition Zone Diameter (IZ) (mm) Streptococcus faecalis” value is 11 mm. In the assay on Candida albicans [1], the “Inhibition Zone Diameter (IZ) (mm) Candida albicans” value is listed as “R (R (IZ = 0 mm))”. For the same molecule, the MIC in the assay with Staphylococcus aureus was 1.95 µg/mL (≈ 4.84 µM). The IC50 in assay [2] was determined as 22.9 ± 0.46 µg/mL (≈ 56.9 µM).
In the case of `NNc1nc2cc(Br)ccc2nc1Cl` [Compound 3, 6-Bromo-2-chloro-3-hydrazinylquinoxaline], in the assay on Salmonella typhimurium, the “Inhibition Zone Diameter (IZ) (mm) Salmonella typhimurium” value stood at 13 mm. For the same molecule, the “Inhibition Zone Diameter (IZ) (mm) Streptococcus faecalis” value with Streptococcus faecalis turned out to be 14 mm. Besides, the “Inhibition Zone Diameter (IZ) (mm) Candida albicans” value with Candida albicans [1] is on record as “R (R (IZ = 0 mm))”. Moreover, in the assay with Staphylococcus aureus, the MIC is 3.9 µg/mL (≈ 14.3 µM). In assay [2], the IC50 worked out at 26.7 ± 2.18 µg/mL (≈ 97.8 µM).
`Clc1nc2ccc(Br)cc2n2nnnc12` [Compound 4, 8-Bromo-4-chlorotetrazolo[1,5-a]quinoxaline]: the “Inhibition Zone Diameter (IZ) (mm) Salmonella typhimurium” value with Salmonella typhimurium amounted to 17 mm. In the assay on Streptococcus faecalis, the “Inhibition Zone Diameter (IZ) (mm) Streptococcus faecalis” value was determined as 18 mm. The MIC in the assay on Candida albicans [3] and with Staphylococcus aureus was 3.9 µg/mL (≈ 13.7 µM) in each case. For the same molecule, in the assay on Candida albicans [1], the “Inhibition Zone Diameter (IZ) (mm) Candida albicans” value is on record as 20 mm. Moreover, the IC50 in assay [2] was determined as 0.01 ± 0.004 µg/mL (≈ 0.0351 µM).
